This note sets out measurements from patent US20090215857A1 (Pfizer Products Inc., priority 2005, published 2009).

Assay [1] addresses T1, human norepinephrine transporter (Homo sapiens, UniProt P23975).
T1 construct: expressed in transfected cells; host or cells: HEK-293
Put plainly: hNET receptor binding ([125I]-RTI-55 radioligand). The conditions noted are these: membranes of HEK-293 cells transfected with human norepinephrine transporter cDNA; 50 pM [125I]-RTI-55; IC50 converted by Cheng-Prusoff; read-out: NET Ki. As to the method: Cell pastes of HEK-293 cells transfected with a human norepinephrine transporter cDNA were prepared. The cell pastes were resuspended in 400 to 700 ml of Krebs-HEPES assay buffer (25 mM HEPES, 122 mM NaCl, 3 mM KCl, 1.2 mM MgSO4, 1.3 mM CaCl2, and 11 mM glucose, pH 7.4) with a Polytron homogenizer at setting 7 for 30 seconds. Aliquots of membranes (5 mg/ml protein) were stored in liquid nitrogen until used.
The binding assay was set up in Beckman deep-well polypropylene plates with a total volume of 250 μl containing: test compound (10^−5M to 10^−12M), cell membranes, and 50 pM [^125I]-RTI-55 (Perkin Elmer, NEX-272; specific activity 2200 Ci/mmol). The reaction was incubated by gentle agitation for 90 minutes at room temperature and was terminated by filtration through Whatman GF/C filter plates using a Brandel 96-well plate harvester. Scintillation fluid (100 μl) was added to each well, and bound [^125I]-RTI-55 was determined using a Wallac Trilux Beta Plate Counter. Test compounds were run in duplicate, and specific binding was defined as the difference between binding in the presence and absence of 10 μM desipramine.
Excel and GraphPad Prism software were used for data calculation and analysis. IC50 values were converted to K, values using the Cheng-Prusoff equation.

Assay [2] concerns the target T2, human serotonin transporter (Homo sapiens, UniProt P31645).
T2 construct: expressed in transfected cells; host or cells: HEK-293
Briefly: hSERT receptor binding ([125I]-RTI-55 radioligand). The conditions noted are these: membranes of HEK-293 cells transfected with human serotonin transporter cDNA; 50 pM [125I]-RTI-55; IC50 converted by Cheng-Prusoff; read-out: SERT Ki. As to the method: Cell pastes of HEK-293 cells transfected with a human serotonin transporter cDNA were prepared. The cell pastes were resuspended in 400 to 700 ml of Krebs-HEPES assay buffer (25 mM HEPES, 122 mM NaCl, 3 mM KCl, 1.2 mM MgSO4, 1.3 mM CaCl2, and 11 mM glucose, pH 7.4) with a Polytron homogenizer at Setting 7 for 30 seconds. Aliquots of membranes (˜2.5 mg/ml protein) were stored in liquid nitrogen until used.
Assays were set up in FlashPlates pre-coated with 0.1% PEI in a total volume of 250 μl containing: test compound (10^−5M to 10^−12M), cell membranes, and 50 pM [^125I]-RTI-55 (Perkin Elmer, NEX-272; specific activity 2200 Ci/mmol). The reaction was incubated and gently agitated for 90 minutes at room temperature, and terminated by removal of assay volume. Plates were covered, and bound [^125I]-RTI-55 was determined using a Wallac Trilux Beta Plate Counter. Test compounds were run in duplicate, and specific binding was defined as the difference between binding in the presence and absence of 10 μM citalopram.
Excel and GraphPad Prism software were used for data calculation and analysis. IC50 values were converted to Ki values using the Cheng-Prusoff equation.

Where a name gives a salt, the structure may show the parent alone.

T2 sequence (P31645 whole entry): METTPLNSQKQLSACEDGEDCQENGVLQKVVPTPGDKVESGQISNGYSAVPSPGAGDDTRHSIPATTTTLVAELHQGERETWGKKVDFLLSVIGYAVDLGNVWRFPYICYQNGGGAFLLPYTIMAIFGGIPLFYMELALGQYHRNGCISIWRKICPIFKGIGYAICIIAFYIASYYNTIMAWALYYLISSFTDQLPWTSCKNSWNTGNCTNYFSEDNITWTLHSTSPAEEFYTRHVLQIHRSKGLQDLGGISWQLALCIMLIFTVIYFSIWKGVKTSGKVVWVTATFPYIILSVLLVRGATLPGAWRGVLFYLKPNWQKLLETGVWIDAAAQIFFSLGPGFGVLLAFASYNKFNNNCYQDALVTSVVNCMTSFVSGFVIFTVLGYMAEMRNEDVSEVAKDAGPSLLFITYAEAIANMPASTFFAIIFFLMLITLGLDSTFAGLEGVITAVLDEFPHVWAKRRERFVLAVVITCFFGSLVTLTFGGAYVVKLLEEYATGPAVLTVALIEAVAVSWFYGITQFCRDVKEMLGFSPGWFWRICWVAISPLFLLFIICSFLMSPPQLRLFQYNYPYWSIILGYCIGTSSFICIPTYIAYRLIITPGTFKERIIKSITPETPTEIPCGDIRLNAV
T1 sequence (P23975 whole entry): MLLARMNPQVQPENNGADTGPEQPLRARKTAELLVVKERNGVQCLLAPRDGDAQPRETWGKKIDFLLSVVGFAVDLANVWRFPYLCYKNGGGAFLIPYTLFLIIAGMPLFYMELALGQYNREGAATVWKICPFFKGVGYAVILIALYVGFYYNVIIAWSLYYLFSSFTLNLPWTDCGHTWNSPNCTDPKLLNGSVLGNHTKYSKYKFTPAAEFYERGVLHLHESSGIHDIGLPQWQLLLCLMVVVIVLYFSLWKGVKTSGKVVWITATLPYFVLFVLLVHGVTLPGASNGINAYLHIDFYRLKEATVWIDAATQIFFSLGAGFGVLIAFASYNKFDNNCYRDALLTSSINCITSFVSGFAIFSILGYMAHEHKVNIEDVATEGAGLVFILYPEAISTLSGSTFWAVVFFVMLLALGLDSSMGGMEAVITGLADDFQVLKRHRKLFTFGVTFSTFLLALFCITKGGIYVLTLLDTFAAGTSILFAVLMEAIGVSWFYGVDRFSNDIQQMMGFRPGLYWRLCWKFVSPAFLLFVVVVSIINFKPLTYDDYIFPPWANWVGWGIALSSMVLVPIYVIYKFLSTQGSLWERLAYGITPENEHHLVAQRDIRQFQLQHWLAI

As to `Cc1ccc(-c2ccccc2CO[C@H]2CCNC2)cc1` [Example A-2, (S)-3-(4′-Methyl-biphenyl-2-ylmethoxy)-pyrrolidine hydrochloride], the Ki amounted to 7.6 nM in assay [1] and 93.3 nM in assay [2].
For `Fc1ccc(-c2ccccc2CO[C@H]2CCNC2)cc1F` [Example A-5, (S)-3-(3′-4′-Difluoro-biphenyl-2-ylmethyloxy)-pyrrolidine hydrochloride], in that order: 11.3 nM and 12 nM.
As to `c1ccc(-c2ccccc2CO[C@H]2CCNC2)cc1` [Example A-7, (S)-3-(Biphenyl-2-ylmethoxy)-pyrrolidine hydrochloride], the Ki in assay [1] came to 13.5 nM; in assay [2], 34.5 nM.
For `Fc1ccc(-c2ccccc2CO[C@H]2CCNC2)cc1` [Example A-8, (S)-3-(4′-Fluoro-biphenyl-2-ylmethoxy)-pyrrolidine maleate], in that order: 15.3 nM and 20.5 nM.
For `Fc1ccc(-c2ccccc2F)c(CO[C@H]2CCNC2)c1` [Example A-9, (S)-3-(4,2′-Difluoro-biphenyl-2-ylmethoxy)-pyrrolidine fumarate], in that order: 17.7 nM and 174 nM.
Take `COc1ccc(-c2ccccc2CO[C@H]2CCNC2)cc1C` [Example A-10, (S)-3-(4′-Methoxy-3′-methyl-biphenyl-2-ylmethoxy)-pyrrolidine fumarate]: the Ki was found to be 22.8 nM in assay [1] and 116 nM in assay [2].
The corresponding values for `Fc1ccc(-c2ccccc2CO[C@H]2CCNC2)cc1Cl` [Example A-11, (S)-3-(3′-Chloro-4′-fluoro-biphenyl-2-ylmethoxy)-pyrrolidine hydrochloride] are 39.2 nM and 10.3 nM.
With `Cc1cc(F)ccc1-c1ccccc1CO[C@H]1CCNC1` [Example A-12, (S)-3-(4′-Fluoro-2′-methyl-biphenyl-2-ylmethoxy)-pyrrolidine hydrochloride], the Ki in assay [1] was found to be 50 nM.
Regarding `Fc1ccc(-c2ccccc2CO[C@@H]2CCNC2)cc1F` [Example A-13, (R)-3-(3′,4′-Difluoro-biphenyl-2-ylmethoxy)-pyrrolidine fumarate], the Ki was 66 nM in assay [1] and 54 nM in assay [2].
For `c1ccc(-c2ccccc2CO[C@@H]2CCNC2)cc1` [Example A-14, (R)-3-(Biphenyl-2-ylmethoxy)-pyrrolidine hydrochloride], in that order: 67.5 nM and 204 nM.
With `Fc1cccc(-c2ccccc2CO[C@@H]2CCNC2)c1F` [Example A-15, (R)-3-(2′,3′-Difluoro-biphenyl-2-ylmethoxy)-pyrrolidine fumarate], the Ki in assay [1] was 80.9 nM; in assay [2] it was 185 nM.
For `Fc1ccccc1-c1ccccc1CO[C@@H]1CCNC1` [Example A-16, (R)-3-(2′-Fluoro-biphenyl-2-ylmethoxy)-pyrrolidine fumarate], in that order: 89.9 nM and 436 nM.
For the molecule `CC(C)Oc1ccccc1-c1ccccc1CO[C@H]1CCNC1` [Example A-19, (S)-3-(2′-Isopropoxy-biphenyl-2-ylmethoxy)-pyrrolidine fumarate], the Ki was 111 nM in assay [1] and 752 nM in assay [2].
In the case of `Fc1ccc(-c2ccccc2CO[C@@H]2CCNC2)c(F)c1` [Example A-20, (R)-3-(2′,4′-Difluoro-biphenyl-2-ylmethoxy)-pyrrolidine fumarate], the Ki in assay [1] amounted to 127 nM; in assay [2], 313 nM.
The corresponding values for `CSc1ccccc1-c1ccccc1CO[C@H]1CCNC1` [Example A-21, (S)-3-(2′-Methylsulfanyl-biphenyl-2-ylmethoxy)-pyrrolidine hydrochloride] are 610 nM and 307 nM.
The corresponding values for `COc1ccc(F)cc1-c1ccccc1CO[C@H]1CCNC1` [Example A-22, fumarate] are not below 10000 nM and 136 nM.
The corresponding values for `Fc1ccc(-c2cc(F)ccc2CO[C@H]2CCNC2)c(F)c1` [Example A-23, (S)-(5,2′,4′-Trifluoro-biphenyl-2-ylmethoxy)-pyrrolidine hydrochloride] are 15.8 nM and 102 nM.
Take `Fc1ccc(CO[C@H]2CCNC2)c(-c2cccc(F)c2F)c1` [Example A-24, (S)-(5,2′,3′-Trifluoro-biphenyl-2-ylmethoxy)-pyrrolidine hydrochloride]: the Ki in assay [1] was 14.2 nM; in assay [2] it was 232 nM.
The corresponding values for `Fc1ccc(CO[C@H]2CCNC2)c(-c2ccccc2F)c1` [Example A-25, (S)-(5,2′-Difluoro-biphenyl-2-ylmethoxy)-pyrrolidine hydrochloride] are 26.2 nM and 152 nM.
For the molecule `Fc1cccc(-c2c(F)cccc2CO[C@H]2CCNC2)c1F` [Example A-26, (S)-3-(6,2′,3′-Trifluoro-biphenyl-2-ylmethoxy)-pyrrolidine hydrochloride], the values for the inhibitory constant (Ki) in assay [1] and in assay [2] were 30.6 nM and 622 nM, respectively.
As to `c1cncc(-c2ccccc2CO[C@H]2CCNC2)c1` [Example A-27, (S)-3-[2-(Pyrrolidin-3-yloxymethyl)-phenyl]-pyridine hydrochloride], the Ki in assay [1] worked out at 2210 nM; in assay [2] it was 211 nM.
With `c1ccc(-c2ccncc2)c(CO[C@H]2CCNC2)c1` [Example A-28, (S)-4-[2-(Pyrrolidin-3-yloxymethyl)-phenyl]-pyridine hydrochloride], the Ki in assay [1] was found to be 4860 nM; in assay [2], 1760 nM.
With `COc1ccc(-c2ccccc2CO[C@H]2CCNC2)cn1` [Example A-29, (S)-2-Methoxy-5-[2-(pyrrolidin-3-yloxymethyl)-phenyl]-pyridine fumarate], the Ki in assay [1] worked out at 2910 nM; in assay [2], 2470 nM.
For the molecule `Fc1ccccc1-c1cccc(F)c1CO[C@H]1CCNC1` [Example A-30, (3S)-3-[(2′,3-difluorobiphenyl-2-yl)methoxy]pyrrolidine fumarate], the results for the Ki in assay [1] and in assay [2] were 80.1 nM and 247 nM, respectively.
In the case of `Fc1cc(CO[C@H]2CCNC2)c(-c2cccc(F)c2F)cc1F` [Example A-31, (3S)-3-[(2′,3′,4,5-tetrafluorobiphenyl-2-yl)methoxy]pyrrolidine fumarate], the Ki amounted to 46.3 nM in assay [1] and 142 nM in assay [2].
In the case of `Fc1ccccc1-c1c(F)cccc1CO[C@H]1CCNC1` [Example A-32, (3S)-3-[(2′,6-difluorobiphenyl-2-yl)methoxy]pyrrolidine hydrochloride], the Ki in assay [1] was found to be 23.9 nM; in assay [2], 758 nM.
The corresponding values for `Fc1cccc(-c2cccc(F)c2CO[C@H]2CCNC2)c1F` [Example A-33, (3S)-3-[(2′,3,3′-trifluorobiphenyl-2-yl)methoxy]pyrrolidine fumarate] are 25.7 nM and 99.7 nM.
With `Fc1ccc(-c2c(F)cccc2CO[C@H]2CCNC2)c(F)c1` [Example A-34, (3S)-3-[(2′,4′,6-trifluorobiphenyl-2-yl)methoxy]pyrrolidine hydrochloride], the Ki in assay [1] stood at 23.3 nM; in assay [2] it was 439 nM.
The corresponding values for `Fc1ccc(-c2ncccc2CO[C@H]2CCNC2)c(F)c1` [Example B-1, (S)-2-(2,4-Difluoro-phenyl)-3-(pyrrolidin-3-yloxymethyl)-pyridine fumarate] are 1020 nM and 5650 nM.
Take `Fc1cccc(-c2ncccc2CO[C@H]2CCNC2)c1F` [Example B-2, (S)-2-(2,3-Difluoro-phenyl)-3-(pyrrolidin-3-yloxymethyl)-pyridine fumarate]: the Ki in assay [1] was 206 nM; in assay [2], 3350 nM.
On to `Fc1ccc(Cl)cc1-c1ccccc1CO[C@H]1CCNC1` [Example D-9, (S)-3-(5′-Chloro-2′-fluoro-biphenyl-2-ylmethoxy)-pyrrolidine], for which the Ki in assay [2] worked out at 71.6 nM.
Take `Cc1ccc(C)c(-c2ccccc2CO[C@H]2CCNC2)c1` [Example D-23, (S)-3-(2′,5′-Dimethyl-biphenyl-2-ylmethoxy)-pyrrolidine]: the Ki in assay [2] turned out to be 154 nM.
For `CCc1ccc(-c2ccccc2CO[C@H]2CCNC2)cc1` [Example D-39, (S)-(4′-Ethyl-biphenyl-2-ylmethoxy)-pyrrolidine], in assay [2], the Ki was determined as 528 nM.

What is called Ki is the dissociation constant of the complex between target and ligand, obtained from inhibition or displacement.
